According to US20250326799A1, “AGENTS INDUCING VASCULARISATION” (Coegin Pharma AB, priority 2022, published 2025):

System: Human coronary artery smooth cells (HCASMCs)
Assay: Gene expression by PCR in arterial smooth muscle cells
Type: cell-based
Method: Cells on 6-well plates were washed with cold DPBS (Gibco, USA) and homogenized in Trizol reagent (Invitrogen, CA, USA). Total RNA was extracted using PureLink RNA Mini Kit (Invitrogen, CA, USA), followed by nucleic acid quantification with NanoDrop 2000c (Thermo Fisher Scientific, USA). To determine mRNA expression of target genes, real-time qPCR was performed using by KAPA SYBR FAST One-Step qRT-PCR Master Mix Kit (KAPA Biosystems, USA) on LightCycler480 system (Roche, Mannheim, Germany). All primers were purchased from miScript Primer Assays (Qiagen, Valencia, CA) and GAPDH mRNA expression of each sample was used for normalization. Cells on 6-well plates were washed with cold DPBS and lysed with the mixture of lysis buffer and protease inhibitors on ice, then centrifuged at 15,000 g for 20 min at 4° C. Supernatant was performed to measure the protein concentration using BCA Protein Assay Kit (Thermo Fisher Scientific, USA). Protein sample was loaded onto SDS-PAGE gels and separated with electrophoresis, followed by transferred to PVDF membranes (Millipore, USA). Membranes were blocked with 5% nonfat milk. Primary antibodies (Abcam, UK) and secondary antibodies were performed to incubate with membranes at 4° C. overnight and at room temperature for 1 hour respectively.

VDTYDGGISVVYGLR [FOL-026]
reduced: c-MET gene expression (10 nM and 1000 nM) | NRP-1 gene expression (10, 100, and 1000 nM)
induced: MMP2 gene expression (10, 100, and 1000 nM) | VEGF-A gene expression (10, 100, and 1000 nM) | IL-6 gene expression (100 and 1000 nM) | MMP3 gene expression (100 and 1000 nM) | TNF-α gene expression (100 and 1000 nM)
